Test results from patent US10696642B2, “TEAD transcription factor autopalmitoylation inhibitors” (The General Hospital Corporation, priority 2015, dated 2020).

How the values were obtained:
[1] = tested on: breast cancer cell line MDA-MB-453; assay: Cell proliferation assay, MDA-MB-453; type: cell-based; settings: Homo sapiens, FIG. 28 panel D
Protocol: (§1) Assays were performed to measure inhibition of cancer cell proliferation by compound (4). The ability of compound (4) (“CP-1”) to inhibit proliferation cell proliferation in the human hepatocellular carcinoma cell lines HuH7 and JHH7, and in the breast cancer cell line MDA-MB-453. The compound was also tested against the SK-HEP-1 (adenocarcinoma), BT-474 (breast tumor), OCUB-M (breast carcinoma), HCC1143 (ductal carcinoma), EVSA-T (ductal carcinoma) and BT-20 (breast carcinoma) cell lines.

TEAD4 [2] = molecular target: T1, TEAD4 (Homo sapiens, UniProt Q15561); assay: In vitro palmitoylation of purified TEAD4 with 1 μM alkyne-palmitoyl-CoA; type: biochemical; settings: purified TEAD4, 1 μM alkyne-palmitoyl-CoA, 0 to 10 μM compound (FIG. 23)
T1 sequence (Q15561 whole entry, species assumed): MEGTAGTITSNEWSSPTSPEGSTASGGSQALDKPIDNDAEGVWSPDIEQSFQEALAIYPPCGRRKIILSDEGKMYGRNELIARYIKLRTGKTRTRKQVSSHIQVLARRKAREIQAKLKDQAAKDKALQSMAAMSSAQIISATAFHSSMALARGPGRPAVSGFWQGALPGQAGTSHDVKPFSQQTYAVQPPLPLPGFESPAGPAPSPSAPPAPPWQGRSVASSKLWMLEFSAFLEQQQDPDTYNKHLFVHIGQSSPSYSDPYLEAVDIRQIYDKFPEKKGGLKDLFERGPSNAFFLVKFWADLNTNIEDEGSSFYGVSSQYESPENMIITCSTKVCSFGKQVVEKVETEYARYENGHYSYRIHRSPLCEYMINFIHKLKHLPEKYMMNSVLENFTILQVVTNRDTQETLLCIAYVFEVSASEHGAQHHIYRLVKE
Protocol: Assays were performed to measure inhibition of TEAD2 and TEAD4 palmitoylation in vitro using purified TEAD2 and TEAD4 proteins and 1 μM of alkyne-palmitoyl-CoA. Compound (4) (“CP-1”) was tested at concentrations in the range from 0 to 10 μM and the amount of palmitoylation was quantified.

JHH7 cells = assay: Colony formation, JHH7; type: cell-based, human; settings: JHH7 (FIG. 28 panel B)
HuH7 cells [3] = assay: Cell proliferation assay, HuH7; type: cell-based, human
Protocol: Human cancer cell lines (HuH7, JHH7), transformed MCF10A-YAP and mouse Lats1/2 DKO cells were cultured in 5% FBS containing media. The cells were seeded into 96-well plate with 500 cells/well. Various concentrations of compounds (10 nM to 20 μM) or DMSO control were added into the wells. The cells were further incubated for 2-5 days. The cell viability is determined by using CellTiter Glo (Promega). The data were then normalized with DMSO control and plotted in Prism software Human melanoma cell A375 and dermal fibroblasts are control cells and are tested similarly.
as §1

TEAD4 [4] = molecular target: T1, TEAD4; assay: TEAD4 palmitoylation in transfected cells; type: cell-based; settings: 1 μM alkyne-palmitic acid probe, 0 to 10 μM compound (FIG. 24)
Protocol: Assays were performed to measure inhibition of TEAD1 and TEAD4 palmitoylation in cells that were transfected with TEAD1 and TEAD4 proteins and labelled with 1 μM of alkyne-palmitic acid probe. The ability of compound (4) (“CP-1”) to inhibit palmitoylation was tested at concentrations in the range from 0 to 10 μM and the amount of palmitoylation was quantified.

HuH7 cells [5] = assay: Colony formation, HuH7; type: cell-based, human
Protocol: Assays were performed to measure inhibition of cancer cell proliferation in HuH7 cells by compounds (4), (22) and (36), which were each tested at 0-20 μM.

DHHC11 = assay: Selectivity assay: palmitoyl acyltransferase DHHC11; type: biochemical; settings: 0 to 10 μM (FIG. 27)
Protocol: Assays were performed to measure inhibition of TEAD4 palmitoylation compared with other palmitoyl acyltransferses, DHHC4, DHHC7 and DHHC11. The ability of compound (4) (“CP-1”) to inhibit palmitoylation was tested at concentrations in the range from 0 to 10 μM and the amount of palmitoylation was quantified.

TEAD1-Vgll4 interaction = molecular target: T2, TEAD1-Vgll4 interaction (Homo sapiens, UniProt P28347); assay: Co-immunoprecipitation of TEAD1 and Vgll4; type: cell-based; settings: 0 to 10 μM (FIG. 26)
T2 construct: Myc; expressed in transfected cells; host or cells: HEK293A
T2 sequence (P28347 whole entry): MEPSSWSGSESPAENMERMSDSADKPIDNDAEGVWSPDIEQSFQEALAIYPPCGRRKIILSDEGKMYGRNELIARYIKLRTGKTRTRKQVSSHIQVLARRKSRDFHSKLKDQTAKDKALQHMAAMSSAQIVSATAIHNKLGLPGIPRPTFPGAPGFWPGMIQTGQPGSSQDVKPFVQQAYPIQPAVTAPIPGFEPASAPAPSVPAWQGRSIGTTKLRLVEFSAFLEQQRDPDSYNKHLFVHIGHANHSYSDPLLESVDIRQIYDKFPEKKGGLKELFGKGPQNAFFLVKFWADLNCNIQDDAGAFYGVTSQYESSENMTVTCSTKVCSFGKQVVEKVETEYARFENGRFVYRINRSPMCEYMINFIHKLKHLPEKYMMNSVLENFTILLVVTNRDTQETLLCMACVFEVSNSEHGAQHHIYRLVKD
Protocol: HEK293A cells were transfected with the indicated above. After 48 h, cells were lysed with lysis buffer (50 mM Tris-HCl, pH 7.3, 150 mM NaCl, 0.5 mM EDTA, 1% Triton X-100, PhosSTOP phosphatase inhibitor cocktail, cOmplete EDTA-free protease inhibitors cocktail). Flag-YAP or Myc-TEAD1 was immunoprecipitated with anti-FLAG M2 magnetic beads (Sigma Aldrich) or anti-c-Myc antibody (M4439, Sigma Aldrich), respectively, overnight with rotation at 4° C. TEAD1 was captured using Protein A/G magnetic resins (Life technologies). Protein-bound resins were washed three times with lysis buffer and processed with SDS-PAGE sample buffer. Blots were probed with anti-c-Myc (Sigma Aldrich), anti-HA (Sigma Aldrich), anti-FLAG M2 (F1804, Sigma Aldrich).
Co-immunoprecipitation assays of TEAD1 and Vgll4 were performed. The ability of compound (4) (“CP-1”) to inhibit to inhibit the TEAD1-Vgll4 interaction was tested at concentrations in the range from 0 to 10 μM.

[6] = tested on: Lats1/2 double knock-out MEF cells; assay: Scratch (cell migration) assay; type: cell-based, mouse; settings: 2.5 μM; DMSO control closed the gap within 16-24 hs (FIG. 21)
Protocol: It has been reported that YAP/TAZ could promote cell invasion and migration (Chan et al., 2008). […] Cells were treated with DMSO control or 2.5 μM of MGH-CP1, and the activities of the compound in blocking the closure of the scratched area was measured. Cells treated with DMSO control migrated fast and closed the gap within 16-24 hs. […] Therefore, further optimization of MGH-CP1 is needed to develop potent and specific inhibitors as chemical tools or “lead” compounds for drug discovery.

IC50 [1]: 0.4 µM
inhibition of TEAD4 palmitoylation in vitro (TEAD4 [2]): dose-dependently inhibited
IC50 (HuH7 cells [3]; Homo sapiens, Huh-7, FIG. 28 panel C): 1.6 µM
inhibition of TEAD4 palmitoylation in cells (TEAD4 [4]): dose-dependently inhibited
inhibition of palmitoylation with DHHC11 (DHHC11): did not inhibit
effect on the interaction of TEAD1 with Vgll4 (TEAD1-Vgll4 interaction): did not affect
SMILES: O=C(CSc1nnc[nH]1)Nc1ccc(C23CC4CC(CC(C4)C2)C3)cc1 [Compound 4]
inhibition of colony formation (JHH7 cells): inhibits
inhibition of cell proliferation, dose dependency (HuH7 cells [3]; HuH7 (FIG. 28 panel A)): dose-dependently inhibits
inhibition of YAP-dependent cancer cell proliferation (HuH7 cells [3]; HuH7, 500 cells/well, 10 μM (FIG. 19)): inhibits
inhibition of colony formation (HuH7 cells [5]; HuH7 (FIG. 28 panel B)): inhibits
inhibition of cancer cell proliferation / colony formation in HuH7 cells (HuH7 cells [5]; tested at 0-20 μM (FIG. 29)): effective
inhibition of cell migration (closure of the scratched area) [6]: did not migrate
